Test system: leucine transporter (LeuT)
Assay: LeuT stability by [3H]-Leu scintillation proximity assay (SPA)
Type: biochemical, Aquifex aeolicus
Experimental: Experiments to measure the structural stability of a leucine transporter (LeuT) protein by TDTs or NDTs were conducted. LeuT protein activity was measured by scintillation proximity assay (SPA) utilizing [^3H]-Leu as a ligand. The concentration of TDTs, NDTs, or DDM was (a) CMC+0.04% by weight, or (b) CMC+[…].
In particular, the LeuT stability measurement experiments were conducted according to the following methods. Depending upon the results of UapA and MelB, only TDT-C11, TDT-C12, NDT-C10, NDT-C11 and NDT-C12 among the amphipathic molecules according to the present invention were selectively used. In accordance with a method disclosed in a paper published by G. Deckert, et al. (Nature 1998, 392, 353-358), a wild-type leucine transporter (LeuT) was purified from Aquifex aeolicus. LeuT is expressed in E. coli C41 (DE3) transformed with pET16b encoding a C-terminal 8×His-tagged transporter (the expression plasmid was provided by Dr E. Gouaux, Vollum Institute, Portland, Oreg., USA). In summary, the […] protein was isolated and solubilized with 1.0% by weight of DDM, followed by binding the protein to a Ni^2+-NTA resin (Life Technologies, Denmark) and eluting the same with 20 mM Tris-HCl (pH 8.0), 1 mM NaCl, 199 mM KCl, 0.05% DDM, and 300 mM imidazole. Next, about 1.5 mg/ml of a protein stock was 10-fold diluted with a buffer in which DDM and imidazole are absent, but TDTs, NDTs, or DDM (control) is supplemented such that a final concentration becomes CMC+0.04% by weight or CMC+0.2% by weight. Protein samples were stored at room temperature and centrifuged at a predetermined time. To evaluate protein activity, [^3H]-Leu coupling was measured using scintillation proximity assay (SPA) (M. Quick et al., Proc. Natl, Acad. Sci. U.S.A. 2007, 104, 3603-3608). 5 μL of each protein sample dissolved in a buffer that contained 200 mM NaCl and each test compound was analyzed. SPA reaction was carried out in the presence of 20 nM [^3H]-Leu and copper chelate (His-Tag) YSi beads (both purchased from PerkinElmer, Denmark). [^3H]-Leu coupling was measured by means of a MicroBeta liquid scintillation counter (PerkinElmer).

CCCCCCCCCCCC(CCCCCCCCCCC)COCC(CO[C@@H]1OC(CO)[C@@H](O)C(O)C1O)(CO[C@@H]1OC(CO)[C@@H](O)C(O)C1O)CO[C@@H]1OC(CO)[C@@H](O)C(O)C1O (some centres unmarked) [NDT-C11]
LeuT protein stabilization ability ([3H]-Leu binding) (CMC+0.04% by weight, room temperature): most excellent
LeuT protein stabilization, overall comparison (conclusion): superior to DDM and similar to MNG-3

From patent US10781229B2, “Tris- or neopentyl glycol-based amphiphiles and uses thereof” (Industry-University Cooperation Foundation Hanyang …, priority 2015, dated 2020)
